Test results taken from the supplement of paper PMC10307832.

Columns and labels:
Assay in all cases: relative viability (nuclei count vs DMSO), 5 days (fraction); higher = more cells survive
[1] = compound: CC1=CC(=NN1)NC2=CC(=NC(=N2)/C=C/C3=CC=CC=C3)N4CCN(CC4)C + CC(=O)Nc1cccc(-n2c(=O)n(C3CC3)c(=O)c3c(Nc4ccc(I)cc4F)n(C)c(=O)c(C)c32)c1 [Trametinib] (partner 0.02 µM)
Procedure, shortened: (§1)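 A single step with final 0.05% Triton X-100, 1% formaldehyde and 1 ug/ml Hoechst fixed the cells and stained nuclei 5 days after treatment. Lung cancer cell lines in 1536-well plates had been treated by pin tool the day after seeding with one drug alone or a fixed anchor-drug dose plus five library-drug doses (not always all listed) in √10 steps, and nuclei were counted on 4× images. Relative viability is the ratio of nuclei in treated wells to nuclei in vehicle wells, taken as the median of duplicate plates.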

Obatoclax + Trametinib = compound: COC1=CC(c2cc3ccccc3[nH]2)=N/C1=C\c1[nH]c(C)cc1C [Obatoclax] + CC(=O)Nc1cccc(-n2c(=O)n(C3CC3)c(=O)c3c(Nc4ccc(I)cc4F)n(C)c(=O)c(C)c32)c1 [Trametinib] (partner 0.02 µM)
Procedure, shortened: as §1

Bortezomib + Foretinib = compound: CC(C)C[C@H](NC(=O)[C@H](Cc1ccccc1)NC(=O)c1cnccn1)B(O)O [Bortezomib] + COc1cc2c(Oc3ccc(NC(=O)C4(C(=O)Nc5ccc(F)cc5)CC4)cc3F)ccnc2cc1OCCCN1CCOCC1 [Foretinib] (partner 0.25 µM)
Procedure, shortened: as §1

Which results are given for LCLC-97TM1?
relative viability ([1]; first compound 0.08 µM): 0.186; relative viability ([1]; first compound 0.253 µM): 0.142; relative viability ([1]; first compound 0.8 µM): 0.209; relative viability ([1]; first compound 2.53 µM): 0.182; relative viability ([1]; first compound 8 µM): 0.0966; relative viability (Obatoclax + Trametinib; first compound 0.01 µM): 0.224; relative viability (Obatoclax + Trametinib; first compound 0.03162 µM): 0.177; relative viability (Obatoclax + Trametinib; first compound 0.1 µM): 0.203; relative viability (Obatoclax + Trametinib; first compound 0.3162 µM): 0.193; relative viability (Obatoclax + Trametinib; first compound 1 µM): 0.194; relative viability (Bortezomib + Foretinib; first compound 0.0002 µM): 0.906; relative viability (Bortezomib + Foretinib; first compound 0.000632 µM): 0.929; relative viability (Bortezomib + Foretinib; first compound 0.002 µM): 0.721; relative viability (Bortezomib + Foretinib; first compound 0.006325 µM): 0.242; relative viability (Bortezomib + Foretinib; first compound 0.02 µM): 0.151

Which results are given for NCI-H838?
relative viability ([1]; first compound 0.08 µM): 0.526; relative viability ([1]; first compound 0.253 µM): 0.541; relative viability ([1]; first compound 0.8 µM): 0.44; relative viability ([1]; first compound 2.53 µM): 0.119; relative viability ([1]; first compound 8 µM): 0.12; relative viability (Obatoclax + Trametinib; first compound 0.01 µM): 0.548; relative viability (Obatoclax + Trametinib; first compound 0.03162 µM): 0.559; relative viability (Obatoclax + Trametinib; first compound 0.1 µM): 0.346; relative viability (Obatoclax + Trametinib; first compound 0.3162 µM): 0.493; relative viability (Obatoclax + Trametinib; first compound 1 µM): 0.248; relative viability (Bortezomib + Foretinib; first compound 0.0002 µM): 1; relative viability (Bortezomib + Foretinib; first compound 0.000632 µM): 1; relative viability (Bortezomib + Foretinib; first compound 0.002 µM): 1.17; relative viability (Bortezomib + Foretinib; first compound 0.006325 µM): 0.165; relative viability (Bortezomib + Foretinib; first compound 0.02 µM): 0.13

NCI-H520 was tested. Which relative viability ([1]; first compound 0.08 µM) did it give?
Its relative viability is 0.758.

And the relative viability ([1]; first compound 0.253 µM)?
Its relative viability is 0.531.

And the relative viability ([1]; first compound 0.8 µM)?
Its relative viability is 0.543.

What about the relative viability ([1]; first compound 2.53 µM) of the same cell line?
The relative viability was 0.12.

And the relative viability ([1]; first compound 8 µM)?
The relative viability was 0.111.

What about the relative viability (Obatoclax + Trametinib; first compound 0.01 µM) of the same cell line?
The relative viability was 0.675.

And the relative viability (Obatoclax + Trametinib; first compound 0.03162 µM)?
The relative viability was 0.777.

And the relative viability (Obatoclax + Trametinib; first compound 0.1 µM)?
The relative viability was 0.86.

And the relative viability (Obatoclax + Trametinib; first compound 0.3162 µM)?
The relative viability was 0.439.

And the relative viability (Obatoclax + Trametinib; first compound 1 µM)?
The relative viability was 0.269.

What about the relative viability (Bortezomib + Foretinib; first compound 0.0002 µM) of the same cell line?
The relative viability was 0.871.

What about the relative viability (Bortezomib + Foretinib; first compound 0.000632 µM) of the same cell line?
Its relative viability is 0.773.

And the relative viability (Bortezomib + Foretinib; first compound 0.002 µM)?
The relative viability was 0.58.

And the relative viability (Bortezomib + Foretinib; first compound 0.006325 µM)?
Its relative viability is 0.184.

And the relative viability (Bortezomib + Foretinib; first compound 0.02 µM)?
The relative viability was 0.148.

For NCI-H2347, which relative viability ([1]; first compound 0.08 µM) is on record?
Its relative viability is 0.291.

And the relative viability ([1]; first compound 0.253 µM)?
Its relative viability is 0.231.

And the relative viability ([1]; first compound 0.8 µM)?
Its relative viability is 0.264.

What about the relative viability ([1]; first compound 2.53 µM) of the same cell line?
Its relative viability is 0.291.

What about the relative viability ([1]; first compound 8 µM) of the same cell line?
Its relative viability is 0.216.

And the relative viability (Obatoclax + Trametinib; first compound 0.01 µM)?
The relative viability was 0.312.

What about the relative viability (Obatoclax + Trametinib; first compound 0.03162 µM) of the same cell line?
Its relative viability is 0.305.

What about the relative viability (Obatoclax + Trametinib; first compound 0.1 µM) of the same cell line?
Its relative viability is 0.27.

And the relative viability (Obatoclax + Trametinib; first compound 0.3162 µM)?
The relative viability was 0.237.

And the relative viability (Obatoclax + Trametinib; first compound 1 µM)?
Its relative viability is 0.277.

And the relative viability (Bortezomib + Foretinib; first compound 0.0002 µM)?
Its relative viability is 0.741.

And the relative viability (Bortezomib + Foretinib; first compound 0.000632 µM)?
The relative viability was 1.3.

And the relative viability (Bortezomib + Foretinib; first compound 0.002 µM)?
Its relative viability is 1.09.

And the relative viability (Bortezomib + Foretinib; first compound 0.006325 µM)?
The relative viability was 0.275.

And the relative viability (Bortezomib + Foretinib; first compound 0.02 µM)?
The relative viability was 0.327.

What does the source list for NCI-H441?
relative viability ([1]; first compound 0.08 µM): 0.434; relative viability ([1]; first compound 0.253 µM): 0.426; relative viability ([1]; first compound 0.8 µM): 0.42; relative viability ([1]; first compound 2.53 µM): 0.141; relative viability ([1]; first compound 8 µM): 0.0993; relative viability (Obatoclax + Trametinib; first compound 0.01 µM): 0.505; relative viability (Obatoclax + Trametinib; first compound 0.03162 µM): 0.353; relative viability (Obatoclax + Trametinib; first compound 0.1 µM): 0.427; relative viability (Obatoclax + Trametinib; first compound 0.3162 µM): 0.27; relative viability (Obatoclax + Trametinib; first compound 1 µM): 0.194; relative viability (Bortezomib + Foretinib; first compound 0.0002 µM): 0.801; relative viability (Bortezomib + Foretinib; first compound 0.000632 µM): 0.987; relative viability (Bortezomib + Foretinib; first compound 0.002 µM): 0.563; relative viability (Bortezomib + Foretinib; first compound 0.006325 µM): 0.188; relative viability (Bortezomib + Foretinib; first compound 0.02 µM): 0.168

NCI-H358 was tested. Which relative viability ([1]; first compound 0.08 µM) did it give?
The relative viability was 0.124.

What about the relative viability ([1]; first compound 0.253 µM) of the same cell line?
Its relative viability is 0.123.

And the relative viability ([1]; first compound 0.8 µM)?
Its relative viability is 0.128.

And the relative viability ([1]; first compound 2.53 µM)?
The relative viability was 0.0733.

And the relative viability ([1]; first compound 8 µM)?
The relative viability was 0.0762.

And the relative viability (Obatoclax + Trametinib; first compound 0.01 µM)?
Its relative viability is 0.129.

And the relative viability (Obatoclax + Trametinib; first compound 0.03162 µM)?
Its relative viability is 0.127.

And the relative viability (Obatoclax + Trametinib; first compound 0.1 µM)?
The relative viability was 0.165.

And the relative viability (Obatoclax + Trametinib; first compound 0.3162 µM)?
Its relative viability is 0.135.

And the relative viability (Obatoclax + Trametinib; first compound 1 µM)?
Its relative viability is 0.114.

And the relative viability (Bortezomib + Foretinib; first compound 0.0002 µM)?
The relative viability was 0.538.

What about the relative viability (Bortezomib + Foretinib; first compound 0.000632 µM) of the same cell line?
The relative viability was 0.647.

What about the relative viability (Bortezomib + Foretinib; first compound 0.002 µM) of the same cell line?
The relative viability was 0.642.

And the relative viability (Bortezomib + Foretinib; first compound 0.006325 µM)?
Its relative viability is 0.0816.

And the relative viability (Bortezomib + Foretinib; first compound 0.02 µM)?
The relative viability was 0.0663.

Which results are given for NCI-H2405?
relative viability ([1]; first compound 0.08 µM): 0.63; relative viability ([1]; first compound 0.253 µM): 0.397; relative viability ([1]; first compound 0.8 µM): 0.685; relative viability ([1]; first compound 2.53 µM): 0.519; relative viability ([1]; first compound 8 µM): 0.147; relative viability (Obatoclax + Trametinib; first compound 0.01 µM): 0.6; relative viability (Obatoclax + Trametinib; first compound 0.03162 µM): 0.746; relative viability (Obatoclax + Trametinib; first compound 0.3162 µM): 0.741; relative viability (Obatoclax + Trametinib; first compound 1 µM): 0.861; relative viability (Bortezomib + Foretinib; first compound 0.0002 µM): 1.02; relative viability (Bortezomib + Foretinib; first compound 0.000632 µM): 1.05; relative viability (Bortezomib + Foretinib; first compound 0.002 µM): 0.86; relative viability (Bortezomib + Foretinib; first compound 0.006325 µM): 0.271; relative viability (Bortezomib + Foretinib; first compound 0.02 µM): 0.188

Which relative viability ([1]; first compound 0.08 µM) does the source give for HCC-15 here?
The relative viability was 0.371.

And the relative viability ([1]; first compound 0.253 µM)?
The relative viability was 0.378.

And the relative viability ([1]; first compound 0.8 µM)?
The relative viability was 0.396.

And the relative viability ([1]; first compound 2.53 µM)?
Its relative viability is 0.278.

What about the relative viability ([1]; first compound 8 µM) of the same cell line?
Its relative viability is 0.0994.

What about the relative viability (Obatoclax + Trametinib; first compound 0.01 µM) of the same cell line?
Its relative viability is 0.43.

And the relative viability (Obatoclax + Trametinib; first compound 0.03162 µM)?
Its relative viability is 0.297.

What about the relative viability (Obatoclax + Trametinib; first compound 0.1 µM) of the same cell line?
Its relative viability is 0.401.

And the relative viability (Obatoclax + Trametinib; first compound 0.3162 µM)?
Its relative viability is 0.353.

What about the relative viability (Obatoclax + Trametinib; first compound 1 µM) of the same cell line?
The relative viability was 0.411.

What about the relative viability (Bortezomib + Foretinib; first compound 0.0002 µM) of the same cell line?
The relative viability was 0.933.

And the relative viability (Bortezomib + Foretinib; first compound 0.000632 µM)?
Its relative viability is 1.09.

What about the relative viability (Bortezomib + Foretinib; first compound 0.002 µM) of the same cell line?
The relative viability was 0.628.

What about the relative viability (Bortezomib + Foretinib; first compound 0.006325 µM) of the same cell line?
Its relative viability is 0.0908.

What about the relative viability (Bortezomib + Foretinib; first compound 0.02 µM) of the same cell line?
Its relative viability is 0.0905.
